Columns and labels:
Assay type in all cases: cell-based
Trichophyton rubrum = experiment: Antifungal activity in vitro, resazurin growth inhibition screen: Trichophyton rubrum; conditions: Trichophyton rubrum B68183; for IC50: read-out: Inf. C pIC50 (converted)
Experimental: (§1) The standard susceptibility screen was performed in 96-well plates (U-bottom, Greiner Bio-One). Serial dilutions (2-fold or 4-fold) of 20 mM compound stock solutions were made in 100% DMSO, followed by an intermediate dilution step in water. These serial dilutions (10 μl) were then spotted onto test-plates that could be stored in the dark at 4° C. for a maximum period of 2 weeks. An adequate broad dose-range was included with 64 μM as the highest in-test concentration. […] The different fungal species/isolates (Table 3a) were cryopreserved and 1/1000 diluted in medium just prior to use. A standard inoculum of 200 μl containing 10^3 colony-forming unit (cfu) was then added to each well. A positive control (100% growth=fungal culture without antifungal) and a negative control (0% growth=RPMI-MOPS medium) were included on each plate.

Microsporum canis = experiment: Antifungal activity in vitro, resazurin growth inhibition screen: Microsporum canis; conditions: Microsporum canis B68128; for IC50: read-out: Inf. B pIC50 (converted)
Experimental: as §1

Candida parapsilosis = experiment: Antifungal activity in vitro, resazurin growth inhibition screen: Candida parapsilosis; conditions: Candida parapsilosis B66126; for IC50: Lodderomyces parapsilosis, read-out: Inf. D pIC50 (converted)
Experimental: as §1

[1] = tested on: Trichophyton mentagrophytes; experiment: Antifungal activity in vitro, resazurin growth inhibition screen: Trichophyton mentagrophytes; conditions: Trichophyton mentagrophytes B70554; for IC50: read-out: Inf. G pIC50 (converted)
Experimental: as §1

Aspergillus fumigatus = experiment: Antifungal activity in vitro, resazurin growth inhibition screen: Aspergillus fumigatus; conditions: Aspergillus fumigatus B42928; for IC50: read-out: Inf. E pIC50 (converted)
Experimental: as §1

Sporothrix schenkii = experiment: Antifungal activity in vitro, resazurin growth inhibition screen: Sporothrix schenkii; conditions: Sporothrix schenkii B62482; for IC50: read-out: Inf. A pIC50 (converted)
Experimental: as §1

Cryptococcus neoformans = experiment: Antifungal activity in vitro, resazurin growth inhibition screen: Cryptococcus neoformans; conditions: Cryptococcus neoformans B66663; for IC50: read-out: Inf. F pIC50 (converted)
Experimental: as §1

Row | Structure (SMILES) | IC50 (Trichophyton rubrum) [µM] | IC50 (Microsporum canis) [µM] | IC50 (Candida parapsilosis) [µM] | IC50 [1] [µM] | IC50 (Aspergillus fumigatus) [µM] | IC50 (Sporothrix schenkii) [µM] | IC50 (Cryptococcus neoformans) [µM] | Inf. C pIC50 (Trichophyton rubrum) | Inf. B pIC50 (Microsporum canis) | Inf. D pIC50 (Candida parapsilosis) | Inf. G pIC50 [1] | Inf. E pIC50 (Aspergillus fumigatus) | Inf. A pIC50 (Sporothrix schenkii) | Inf. F pIC50 (Cryptococcus neoformans)
1 | Cl.Clc1ccc(Cl)c2c1CNC(c1ccc3c(c1)CCO3)c1cccn1-2 (centres unmarked) [Compound 32, 7,10-dichloro-4-(2,3-dihydro-5-benzofuranyl)-5,6-dihydro-4H-pyrrolo[1,2-a][1,4]-benzodiazepine .HCl] | – | – | – | – | – | – | – | 5.22 | 5.52 | <4.19 | 4.92 | <4.19 | <4.19 | 4.64
2 | Cl.Clc1ccc(Cl)c2c1CNC(c1ccc3c(c1)OCC3)c1cccn1-2 (centres unmarked) [Compound 33, 7,10-dichloro-4-(2,3-dihydro-6-benzofuranyl)-5,6-dihydro-4H-pyrrolo[1,2-a][1,4]-benzodiazepine .HCl] | – | – | – | – | – | – | – | 5.15 | 5.52 | <4.19 | <4.19 | <4.19 | <4.19 | <4.19
3 | Cl.Clc1cc(Cl)c2c(c1)CNC(c1ccc3c(c1)CCO3)c1cccn1-2 (centres unmarked) [Compound 34, 8,10-dichloro-4-(2,3-dihydro-5-benzofuranyl)-5,6-dihydro-4H-pyrrolo[1,2-a][1,4]-benzodiazepine .HCl] | – | – | – | – | – | – | – | 5.70 | 5.70 | <4.19 | 4.96 | <4.19 | <4.19 | 5.52
4 | Fc1cccc2c1CN=C(c1ccc3c(c1)CCCO3)c1cccn1-2 [Compound 40, 4-(3,4-dihydro-2H-1-benzopyran-6-yl)-7-fluoro-6H-pyrrolo[1,2-a][1,4]benzo-diazepine] | – | – | – | – | – | – | – | <4.19 | 4.49 | 5.56 | <4.19 | <4.19 | <4.19 | 5.87
5 | Clc1ccc2c(c1)-n1cccc1C(c1ccc3c(c1)CCOC3)=NC2 [Compound 41, 9-chloro-4-(3,4-dihydro-1H-2-benzopyran-6-yl)-6H-pyrrolo[1,2-a][1,4]benzo-diazepine] | – | – | – | – | – | – | – | <4.19 | 4.48 | 5.60 | 4.49 | <4.19 | <4.19 | 4.52
6 | Clc1ccc2c(c1)-n1cccc1C(c1ccc3c(c1)CCCO3)=NC2 [Compound 42, 9-chloro-4-(3,4-dihydro-2H-1-benzopyran-6-yl)-6H-pyrrolo[1,2-a][1,4]benzo-diazepine] | – | – | – | – | – | – | – | <4.19 | 4.49 | 5.63 | <4.19 | <4.19 | 5.10 | 6.82
7 | Fc1cc(F)c2c(c1)-n1cccc1C(c1ccc3c(c1)CCCO3)=NC2 [Compound 46, 4-(3,4-dihydro-2H-1-benzopyran-6-yl)-7,9-difluoro-6H-pyrrolo[1,2-a][1,4]benzo-diazepine] | – | – | – | – | – | – | – | 4.44 | 4.48 | 5.79 | <4.19 | 4.49 | 4.49 | 5.49
8 | Clc1ccc(Cl)c2c1CN=C(c1ccc3c(c1)OCC3)c1cccn1-2 [Compound 47, 7,10-dichloro-4-(2,3-dihydro-6-benzofuranyl)-6H-pyrrolo[1,2-a][1,4]benzo-diazepine] | – | – | – | – | – | – | – | 5.92 | 5.40 | <4.19 | <4.19 | <4.19 | <4.19 | <4.19
9 | Br.CCOc1cc2c(cc1C1NCc3c(Cl)cccc3-n3cccc31)OC(C)C2 (centres unmarked) [Compound 50, 7-chloro-4-(5-ethoxy-2,3-dihydro-2-methyl-6-benzofuranyl)-5,6-dihydro-4H-pyrrolo[1,2-a][1,4]benzodiazepine .HBr] | – | – | – | – | – | – | – | 5.52 | 4.92 | <4.19 | <4.19 | <4.19 | <4.19 | 4.74
10 | Cl.O=C1CCc2ccc(C3NCc4c(Cl)cccc4-n4cccc43)cc21 (centres unmarked) [Compound 52, 6-(7-chloro-5,6-dihydro-4H-pyrrolo[1,2-a][1,4]benzodiazepin-4-yl)-2,3-dihydro-1H-inden-1-one .HCl] | – | – | – | – | – | – | – | 4.55 | <4.80 | <4.19 | 4.31 | <4.19 | <4.19 | <4.19
11 | Cl.Fc1cccc2c1CNC(c1ccc3c(c1)CCC(F)(F)O3)c1cccn1-2 (centres unmarked) [Compound 53, 4-(2,2-difluoro-3,4-dihydro-2H-1-benzopyran-6-yl)-7-fluoro-5,6-dihydro-4H-pyrrolo[1,2-a][1,4]benzodiazepine .HCl] | – | – | – | – | – | – | – | 4.50 | 4.49 | <4.19 | 4.49 | 4.97 | <4.19 | 4.87
12 | Cl.Fc1cc(F)c2c(c1)-n1cccc1C(c1ccc3c(c1)CCC(F)(F)O3)NC2 (centres unmarked) [Compound 54, 4-(2,2-difluoro-3,4-dihydro-2H-1-benzopyran-6-yl)-7,9-difluoro-5,6-dihydro-4H-pyrrolo[1,2-a][1,4]benzodiazepine .HCl] | – | – | – | – | – | – | – | 5.10 | 5.09 | <4.19 | 4.49 | <4.19 | <4.19 | 5.11
13 | FC1(F)CCc2cc(C3=NCc4c(Cl)cccc4-n4cccc43)ccc21 [Compound 66, 7-chloro-4-(1,1-difluoro-2,3-dihydro-1H-inden-5-yl)-6H-pyrrolo[1,2-a][1,4]benzo-diazepine] | – | – | – | – | – | – | – | <4.19 | 4.49 | 5.55 | <4.19 | 5.09 | 4.46 | 6.11
14 | FC1(F)CCc2cc(C3=NCc4ccc(Cl)cc4-n4cccc43)ccc21 [Compound 67, 9-chloro-4-(1,1-difluoro-2,3-dihydro-1H-inden-5-yl)-6H-pyrrolo[1,2-a][1,4]benzo-diazepine] | – | – | – | – | – | – | – | <4.19 | 5.09 | 5.90 | 5.09 | 5.10 | 5.10 | 5.36
15 | FC1(F)CCc2cc(C3=NCc4cccc(Cl)c4-n4cccc43)ccc21 [Compound 68, 10-chloro-4-(1,1-difluoro-2,3-dihydro-1H-inden-5-yl)-6H-pyrrolo[1,2-a][1,4]benzo-diazepine] | – | – | – | – | – | – | – | <4.19 | <4.19 | <4.19 | <4.19 | 4.19 | <4.19 | <4.19

More lines, main results first:

Row | IC50 (Trichophyton rubrum) [µM] | IC50 (Microsporum canis) [µM] | IC50 (Candida parapsilosis) [µM] | IC50 [1] [µM] | IC50 (Aspergillus fumigatus) [µM] | IC50 (Sporothrix schenkii) [µM] | IC50 (Cryptococcus neoformans) [µM] | Structure (SMILES) | Inf. C pIC50 (Trichophyton rubrum) | Inf. B pIC50 (Microsporum canis) | Inf. D pIC50 (Candida parapsilosis) | Inf. G pIC50 [1] | Inf. E pIC50 (Aspergillus fumigatus) | Inf. A pIC50 (Sporothrix schenkii) | Inf. F pIC50 (Cryptococcus neoformans)
16 | 5.01 | 5.01 | 12 | 7.94 | > 64.6 | 5.01 | 7.08 | Clc1ccc2c(c1Cl)CN=C(c1ccc3c(c1)CCO3)c1cccn1-2 [Compound 44, 7,8-dichloro-4-(2,3-dihydro-5-benzofuranyl)-6H-pyrrolo[1,2-a][1,4]benzodiazepine] | – | – | – | – | – | – | –
17 | 1.58 | 2 | > 64.6 | 3.98 | 2.4 | 2.24 | 5.89 | O=C1CCc2cc(C3=NCc4cccc(Cl)c4-n4cccc43)ccc21 [Compound 57, 5-(10-chloro-6H-pyrrolo[1,2-a][1,4]benzodiazepin-4-yl)-2,3-dihydro-1H-inden-1-one] | – | – | – | – | – | – | –
18 | 49 | > 64.6 | 4.37 | > 64.6 | 32.4 | 31.6 | 8.13 | O=C1CCCc2cc(C3=NCc4cccc(Cl)c4-n4cccc43)ccc21 [Compound 61, 6-(10-chloro-6H-pyrrolo[1,2-a][1,4]benzodiazepin-4-yl)-3,4-dihydro-1 (2H)-naphthalenone] | – | – | – | – | – | – | –
19 | 0.269 | 0.617 | 8.13 | 0.309 | 0.219 | 1.95 | 0.1 | FC1(F)CCc2cc(C3=NCc4ccc(Cl)cc4-n4cccc43)ccc2O1 [Compound 71, 9-chloro-4-(2,2-difluoro-3,4-dihydro-2H-1-benzopyran-6-yl)-6H-pyrrolo[1,2-a]-[1,4]benzodiazepine] | – | – | – | – | – | – | –
20 | 0.407 | 0.407 | 11 | 1.62 | 0.617 | 2.63 | 0.38 | FC1(F)CCc2cc(C3=NCc4cccc(Cl)c4-n4cccc43)ccc2O1 [Compound 72, 10-chloro-4-(2,2-difluoro-3,4-dihydro-2H-1-benzopyran-6-yl)-6H-pyrrolo[1,2-a]-[1,4]benzodiazepine] | – | – | – | – | – | – | –

Reference: patent US9040524B2, “Antifungal 5,6-dihydro-4H-pyrrolo[1,2-a][1,4]-benzodiazepines and 6H-pyrrolo[1,2-a][1,4]benzodiazepines substituted with bicycle benzene derivatives” (JANSSEN PHARMACEUTICA NV, priority 2010, dated 2015)
